Assays:
BTK = target: T1, BTK (Homo sapiens, UniProt Q06187); assay: KINOMEscan; assay type: binding; settings: 2000 nM; read-out: Percent Control
T1 construct: purchased DiscoverX (Eurofins) KINOMEscan / scanEDGE, inferred from the naming style

AURKB = target: T2, AURKB (Homo sapiens, UniProt Q96GD4); assay: KINOMEscan; assay type: binding; settings: 2000 nM; read-out: Percent Control
T2 construct: purchased DiscoverX (Eurofins) KINOMEscan / scanEDGE, inferred from the naming style

CSNK1D = target: T3, CSNK1D (Homo sapiens, UniProt P48730); assay: KINOMEscan; assay type: binding; settings: 2000 nM; read-out: Percent Control
T3 construct: purchased DiscoverX (Eurofins) KINOMEscan / scanEDGE, inferred from the naming style
T3 sequence (P48730 whole entry): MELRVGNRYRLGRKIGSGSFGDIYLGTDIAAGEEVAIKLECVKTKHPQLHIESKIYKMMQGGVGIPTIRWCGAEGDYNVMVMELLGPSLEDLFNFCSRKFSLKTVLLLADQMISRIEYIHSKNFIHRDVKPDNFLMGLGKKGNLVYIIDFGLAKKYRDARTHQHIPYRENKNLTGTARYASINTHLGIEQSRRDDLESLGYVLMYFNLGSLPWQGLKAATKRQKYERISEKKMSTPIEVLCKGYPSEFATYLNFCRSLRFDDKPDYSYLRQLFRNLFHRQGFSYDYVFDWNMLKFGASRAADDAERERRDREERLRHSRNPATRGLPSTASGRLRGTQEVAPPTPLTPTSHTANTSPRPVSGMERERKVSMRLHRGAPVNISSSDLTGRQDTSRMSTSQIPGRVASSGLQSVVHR

CSF1R = target: T4, CSF1R (Homo sapiens, UniProt P07333); assay: KINOMEscan; assay type: binding; settings: 2000 nM; read-out: Percent Control
T4 construct: purchased DiscoverX (Eurofins) KINOMEscan / scanEDGE, inferred from the naming style
T4 sequence (P07333 20-972): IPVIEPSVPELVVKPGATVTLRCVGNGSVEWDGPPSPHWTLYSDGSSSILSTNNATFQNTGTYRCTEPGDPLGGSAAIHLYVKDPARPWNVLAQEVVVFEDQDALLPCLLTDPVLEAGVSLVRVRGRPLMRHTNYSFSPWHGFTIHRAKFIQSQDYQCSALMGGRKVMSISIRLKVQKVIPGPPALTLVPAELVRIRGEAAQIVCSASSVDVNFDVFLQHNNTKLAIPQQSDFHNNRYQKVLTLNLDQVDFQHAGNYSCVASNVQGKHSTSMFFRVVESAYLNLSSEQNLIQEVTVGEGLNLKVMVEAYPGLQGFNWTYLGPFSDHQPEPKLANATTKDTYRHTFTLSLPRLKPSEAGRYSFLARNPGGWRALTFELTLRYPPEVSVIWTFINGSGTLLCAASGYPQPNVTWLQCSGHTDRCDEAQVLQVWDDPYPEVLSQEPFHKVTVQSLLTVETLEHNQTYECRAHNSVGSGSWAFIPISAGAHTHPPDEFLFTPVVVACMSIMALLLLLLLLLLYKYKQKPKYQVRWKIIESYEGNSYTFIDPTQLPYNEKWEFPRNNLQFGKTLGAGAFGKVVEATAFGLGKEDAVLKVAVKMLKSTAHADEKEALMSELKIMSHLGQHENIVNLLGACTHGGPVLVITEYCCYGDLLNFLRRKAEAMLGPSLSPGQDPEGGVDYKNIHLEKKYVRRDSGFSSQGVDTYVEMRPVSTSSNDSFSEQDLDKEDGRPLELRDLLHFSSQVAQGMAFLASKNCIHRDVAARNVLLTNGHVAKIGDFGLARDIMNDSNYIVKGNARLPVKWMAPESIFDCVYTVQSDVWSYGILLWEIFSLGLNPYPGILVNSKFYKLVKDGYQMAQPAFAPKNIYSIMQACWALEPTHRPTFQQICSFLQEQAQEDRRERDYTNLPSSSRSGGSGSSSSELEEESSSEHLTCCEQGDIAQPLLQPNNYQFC

ADCK3 = target: T5, ADCK3 (Homo sapiens, UniProt Q8NI60); assay: KINOMEscan; assay type: binding; settings: 2000 nM; read-out: Percent Control
T5 construct: purchased DiscoverX (Eurofins) KINOMEscan / scanEDGE, inferred from the naming style
T5 sequence (Q8NI60 163-647): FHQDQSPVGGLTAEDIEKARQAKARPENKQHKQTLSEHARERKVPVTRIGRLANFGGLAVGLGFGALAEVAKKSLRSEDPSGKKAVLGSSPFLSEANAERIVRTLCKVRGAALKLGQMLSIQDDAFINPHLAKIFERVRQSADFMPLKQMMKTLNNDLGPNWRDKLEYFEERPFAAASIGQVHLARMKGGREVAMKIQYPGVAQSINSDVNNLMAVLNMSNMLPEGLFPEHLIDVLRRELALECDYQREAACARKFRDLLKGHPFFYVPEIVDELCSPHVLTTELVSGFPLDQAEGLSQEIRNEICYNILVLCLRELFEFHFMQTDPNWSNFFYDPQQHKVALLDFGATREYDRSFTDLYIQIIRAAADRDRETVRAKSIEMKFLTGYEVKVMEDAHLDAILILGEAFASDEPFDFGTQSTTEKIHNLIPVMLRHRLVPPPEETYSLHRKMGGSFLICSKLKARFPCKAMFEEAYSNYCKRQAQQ

FAK = target: T6, FAK (Homo sapiens, UniProt Q05397); assay: KINOMEscan; assay type: binding; settings: 2000 nM; read-out: Percent Control
T6 construct: purchased DiscoverX (Eurofins) KINOMEscan / scanEDGE, inferred from the naming style
T6 sequence (Q05397 whole entry): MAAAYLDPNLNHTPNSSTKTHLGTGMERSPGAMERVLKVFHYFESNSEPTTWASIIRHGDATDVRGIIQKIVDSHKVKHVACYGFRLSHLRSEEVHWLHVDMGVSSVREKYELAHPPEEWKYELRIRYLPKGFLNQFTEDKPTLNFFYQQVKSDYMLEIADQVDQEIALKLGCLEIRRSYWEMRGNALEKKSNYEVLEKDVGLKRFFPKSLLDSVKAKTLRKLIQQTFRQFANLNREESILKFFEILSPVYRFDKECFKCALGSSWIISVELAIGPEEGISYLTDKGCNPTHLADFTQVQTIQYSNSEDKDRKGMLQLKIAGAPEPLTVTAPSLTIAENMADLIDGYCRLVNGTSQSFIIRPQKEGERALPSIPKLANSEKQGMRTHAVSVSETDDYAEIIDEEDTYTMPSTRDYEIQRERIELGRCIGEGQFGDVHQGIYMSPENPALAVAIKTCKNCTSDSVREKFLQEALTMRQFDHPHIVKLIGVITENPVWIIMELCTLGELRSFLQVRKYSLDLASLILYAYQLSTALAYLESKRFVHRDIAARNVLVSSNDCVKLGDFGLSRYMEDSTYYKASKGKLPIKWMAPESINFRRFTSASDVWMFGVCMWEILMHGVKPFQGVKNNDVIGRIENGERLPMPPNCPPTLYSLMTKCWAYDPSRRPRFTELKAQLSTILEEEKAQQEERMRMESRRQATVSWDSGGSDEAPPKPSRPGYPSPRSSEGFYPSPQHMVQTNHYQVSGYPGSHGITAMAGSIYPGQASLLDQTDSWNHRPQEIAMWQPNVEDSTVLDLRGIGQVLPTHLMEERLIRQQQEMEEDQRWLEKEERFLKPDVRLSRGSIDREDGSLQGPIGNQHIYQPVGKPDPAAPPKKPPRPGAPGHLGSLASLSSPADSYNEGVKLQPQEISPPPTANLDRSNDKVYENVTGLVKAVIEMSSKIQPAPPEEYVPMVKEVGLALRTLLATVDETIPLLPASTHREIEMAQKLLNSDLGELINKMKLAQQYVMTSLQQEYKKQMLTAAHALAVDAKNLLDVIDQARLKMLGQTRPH

AKT2 = target: T7, AKT2 (Homo sapiens, UniProt P31751); assay: KINOMEscan; assay type: binding; settings: 2000 nM; read-out: Percent Control
T7 construct: purchased DiscoverX (Eurofins) KINOMEscan / scanEDGE, inferred from the naming style
T7 sequence (P31751 whole entry): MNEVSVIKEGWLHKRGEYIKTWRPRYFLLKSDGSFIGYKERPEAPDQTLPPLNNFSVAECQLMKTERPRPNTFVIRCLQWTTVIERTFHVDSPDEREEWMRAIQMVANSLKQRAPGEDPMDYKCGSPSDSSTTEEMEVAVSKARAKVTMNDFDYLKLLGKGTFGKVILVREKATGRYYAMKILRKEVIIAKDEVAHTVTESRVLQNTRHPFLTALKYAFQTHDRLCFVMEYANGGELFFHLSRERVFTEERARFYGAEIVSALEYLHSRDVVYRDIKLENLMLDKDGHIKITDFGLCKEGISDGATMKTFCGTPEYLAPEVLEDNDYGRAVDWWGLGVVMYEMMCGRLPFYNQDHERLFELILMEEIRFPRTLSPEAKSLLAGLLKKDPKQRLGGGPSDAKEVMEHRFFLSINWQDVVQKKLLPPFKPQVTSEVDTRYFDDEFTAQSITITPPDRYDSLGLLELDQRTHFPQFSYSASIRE

GSK3B = target: T8, GSK3B (Homo sapiens, UniProt P49841); assay: KINOMEscan; assay type: binding; settings: 2000 nM; read-out: Percent Control
T8 construct: purchased DiscoverX (Eurofins) KINOMEscan / scanEDGE, inferred from the naming style
T8 sequence (P49841 whole entry): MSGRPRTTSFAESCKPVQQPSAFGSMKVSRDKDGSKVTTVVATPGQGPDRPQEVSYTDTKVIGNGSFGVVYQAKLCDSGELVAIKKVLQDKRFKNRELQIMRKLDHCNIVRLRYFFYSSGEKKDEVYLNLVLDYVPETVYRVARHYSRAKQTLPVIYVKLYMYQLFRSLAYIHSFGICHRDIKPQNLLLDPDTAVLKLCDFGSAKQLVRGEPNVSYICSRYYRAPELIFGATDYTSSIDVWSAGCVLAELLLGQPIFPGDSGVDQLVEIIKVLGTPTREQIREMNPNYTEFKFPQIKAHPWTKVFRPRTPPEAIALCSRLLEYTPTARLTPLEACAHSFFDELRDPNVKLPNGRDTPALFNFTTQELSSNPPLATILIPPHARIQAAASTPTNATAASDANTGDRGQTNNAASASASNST

ERBB2 = target: T9, ERBB2 (Homo sapiens, UniProt P04626); assay: KINOMEscan; assay type: binding; settings: 2000 nM; read-out: Percent Control
T9 construct: purchased DiscoverX (Eurofins) KINOMEscan / scanEDGE, inferred from the naming style

PFKFB3 = PFKFB3 (Homo sapiens, UniProt Q16875); assay: Cellular thermal shift assay (CETSA) in U2OS cells; assay type: cell-based; settings: 10 µM
PFKFB3, sequence (Q16875 whole entry): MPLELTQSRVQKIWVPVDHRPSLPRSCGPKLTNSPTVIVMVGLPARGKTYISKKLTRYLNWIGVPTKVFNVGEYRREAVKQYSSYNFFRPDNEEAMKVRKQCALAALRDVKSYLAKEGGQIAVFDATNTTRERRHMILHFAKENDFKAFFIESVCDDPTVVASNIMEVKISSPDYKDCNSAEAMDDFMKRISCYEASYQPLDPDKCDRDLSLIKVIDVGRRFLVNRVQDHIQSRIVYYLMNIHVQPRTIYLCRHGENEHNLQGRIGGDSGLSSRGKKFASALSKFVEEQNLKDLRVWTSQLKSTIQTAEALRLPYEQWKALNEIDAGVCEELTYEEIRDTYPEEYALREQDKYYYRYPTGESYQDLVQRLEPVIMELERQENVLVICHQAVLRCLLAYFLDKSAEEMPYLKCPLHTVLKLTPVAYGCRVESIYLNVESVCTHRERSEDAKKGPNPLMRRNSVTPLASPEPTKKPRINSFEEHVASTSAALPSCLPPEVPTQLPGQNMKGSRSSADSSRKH
Description: U2OS cells in exponential growth rate were treated with indicated inhibitors at a concentration of 10 μM or DMSO for 6, 24, or 72 h and then harvested using trypsin, upon detachment trypsinization was inhibited by addition of cell media and cells spun down at 200 × g for 10 min at 4 °C. The pellet was resuspended in TBS (50 mM Tris–HCl (pH 7.5) and 150 mM NaCl) supplemented with protease inhibitors (Roche), cells were lysed by a freeze–thaw circle three times at −80 °C for 3 min and then 37 °C for 3 min. Debris was removed by centrifugation at 16,000 × g for 20 min at 4 °C, cell lysates were aliquoted and heated to indicated temperatures for 3 min. Insoluble proteins were then removed by centrifugation at 16,000 × g at 4 °C for 20 min, supernatant was transferred to new tubes and protein concentration was determined using BCA assay (Pierce). Western blot was performed according to standard procedures.

U2OS DR-GFP cells = assay: DR-GFP (HR) assay; assay type: cell-based; settings: DMSO = 100% activity
Description: 5 × 10^4 U2OS (DR-GFP) cells were seeded into 12-well plates, 24 h later cells were treated with the indicated siRNAs or inhibitors and, 24 h later, transfected with 150 ng of an I-SceI vector using JetPEI or JetPRIME (Polyplus transfections). The next day, the medium was changed; 24 h after this, cells were harvested by trypsinization and washed with PBS, and the GFP signal was measured by flow cytometry on a FACS Navios (as described above). The frequency of repair in cells treated with inhibitors or transfected with the various siRNAs was calculated relative to cells treated with DMSO or transfected with control siRNA.

BJ TERT cells = assay: Clonogenic survival, BJ TERT; assay type: cell-based; settings: with and without IR (2 Gy), concentrations active in BJ RAS
Description: U2OS cells were transfected with indicated siRNAs and 24 h later exposed to IR (2 Gy) or left untreated and allowed to recover for 4 h. One-hundred U2OS cells were then seeded into 6-well plates and after 10 days colonies were fixed and stained with 4% methylene blue (Sigma Aldrich) in methanol. BJ TERT (500 cells), BJ RAS (200 cells), or U2OS (200 cells) were seeded into 6-well plates 24 h prior to treatment with inhibitors as indicated or vehicle for 24 h and then subjected to IR (2 Gy). The inhibitors were washed out 72 h later and colonies were fixed 4 days (BJ RAS) or 7 days (BJ TERT) later with 4% methylene blue in methanol.

[1] = tested on: cell lines representing pancreatic, gastric, and colon cancer; assay: Cell viability of cancer cell lines; assay type: cell-based; settings: prolonged incubation (72 h)
Description: Cell proliferation was assayed by quantifying total cellular protein levels after indicated treatments and incubation times using the Sulphorhodamine B kit, TOX6 (Sigma-Aldrich). MIA PaCa-2, PANC1, SW620, and SW480 cells were plated at a density of 6 × 10^3 cells/well in 96-well plates (CLS3596, Sigma-Aldrich) and allowed to attach overnight. The following day, compounds were diluted in dose–response curve mode, required volume was transferred to assay medium to a maximal DMSO concentration of 0.1%. The diluted compounds were added to the cells with a starting dose–response concentration of 100 µM, all compounds were tested in duplicate plates. After 72 h of incubation with compounds, total protein per well was precipitated using TCA according to the manufacturer's instructions; the sulphorhodamine dye was added to the air-dried wells. After 20 min incubation at room temperature, the dye was discarded and the samples were gently rinsed with 1% HOAc until clear. After air drying, bound dye was solubilized in 10 mM Tris base, and the absorbance of dye was measured at 565 nm. To quantify growth, samples were collected also at t = 0 h, and the resulting absorbance was set to 100%.

T1 sequence (Q06187 whole entry): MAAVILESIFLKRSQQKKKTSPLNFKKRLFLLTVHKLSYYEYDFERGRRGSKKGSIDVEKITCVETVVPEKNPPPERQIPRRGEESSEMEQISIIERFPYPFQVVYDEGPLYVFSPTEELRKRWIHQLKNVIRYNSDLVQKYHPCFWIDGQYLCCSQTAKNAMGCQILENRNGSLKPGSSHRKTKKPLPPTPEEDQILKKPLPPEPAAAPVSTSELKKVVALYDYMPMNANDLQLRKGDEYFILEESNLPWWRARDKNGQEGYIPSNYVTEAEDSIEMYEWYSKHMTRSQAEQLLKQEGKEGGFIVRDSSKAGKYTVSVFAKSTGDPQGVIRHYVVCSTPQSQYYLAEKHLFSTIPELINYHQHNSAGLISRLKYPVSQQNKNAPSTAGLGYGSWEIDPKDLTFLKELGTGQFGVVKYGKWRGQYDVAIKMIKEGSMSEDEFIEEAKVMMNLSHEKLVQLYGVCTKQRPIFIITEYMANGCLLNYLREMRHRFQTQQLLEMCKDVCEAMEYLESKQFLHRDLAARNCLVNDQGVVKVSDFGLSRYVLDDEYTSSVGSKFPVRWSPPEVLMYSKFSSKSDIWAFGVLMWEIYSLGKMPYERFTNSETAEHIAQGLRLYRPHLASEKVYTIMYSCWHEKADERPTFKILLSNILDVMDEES

SMILES	remaining binding at 2 µM (BTK)	remaining binding at 2 µM (AURKB)	remaining binding at 2 µM (CSNK1D)	remaining binding at 2 µM (CSF1R)	remaining binding at 2 µM (ADCK3)	remaining binding at 2 µM (FAK)	remaining binding at 2 µM (AKT2)	remaining binding at 2 µM (GSK3B)	remaining binding at 2 µM (ERBB2)	intracellular target engagement of PFKFB3 (CETSA) (PFKFB3)	HR activity as compared to vehicle-treated cells (U2OS DR-GFP cells)	clonogenic survival of BJ TERT (in words) (BJ TERT cells)	effect on cell viability [1]
O=C(O)c1ccc(NS(=O)(=O)c2cccc(-c3cc(F)ccc3O)c2)cc1O [KAN0438241, 4-{[(5′-Fluoro-2′-hydroxybiphenyl-3-yl)sulfonyl]amino}-2-hydroxybenzoic acid]	100%	92%	100%	90%	100%	96%	97%	91%	92%	–	–	–	–
O=C(OCCO)c1ccc(NS(=O)(=O)c2cccc(-c3cc(F)ccc3O)c2)cc1O [KAN0438757, 2-Hydroxyethyl-4-{[(5′-fluoro-2′-hydroxybiphenyl-3-yl)sulfonyl]amino}-2-hydroxybenzoate]	–	–	–	–	–	–	–	–	–	demonstrated intracellular target engagement	10%	only marginally affected	significantly reduce cell viability

— PMC6155239, “Targeting PFKFB3 radiosensitizes cancer cells and suppresses homologous recombination” (Nature Communications, 2018)
